“Also recorded” adds a separate entry of the source.
How the values were obtained:
Complement 3 = experiment: Plasma complement 3 in MAP 1.6; format: in vivo, human
Experimental: Plasma samples prepared from blood collected in EDTA-containing tubes were stored at −80° C. until tested. The samples were thawed at room temperature, vortexed, spun at 13,000×g for 5 minutes for clarification and 100 uL aliquots were removed for MAP analysis into a master microtiter plate. Using automated pipetting, an aliquot of each sample was introduced into one of the capture microsphere multiplexes of the Human MAP 1.6. This MAP comprised of 89 antigens that included markers for oxidative stress, inflammation, immune status, T2DM, CVD, blood clotting, cancer, liver and kidney functions. All plasma samples were tested in duplicate. The mixture of sample and capture microspheres were thoroughly mixed and incubated at room temperature for 1 hour. Multiplexed cocktails of biotinylated, reporter antibodies for each multiplex were then added robotically and after thorough mixing, were incubated for an additional hour at room temperature. […] Testing results were determined first for the high, medium and low controls for each multiplex to ensure proper assay performance. Unknown values for each of the analytes localized in a specific multiplex were determined using 4 and 5 parameter, weighted and non-weighted curve fitting algorithms included in the data analysis package. […]

[1] = system: creatinine kinase MB (CKMB); experiment: Plasma CKMB concentration (Mesoscale multiplex); format: in vivo, human; details: EDTA plasma; End LG, 500 mg/d, 56 days, n = 10, mean ± SEM
Experimental: (§1) CMP performed on serum samples at the chemistry laboratory of University of California Medical Center by using the Beckman Coulter DxC800. GGT and CKMB were determined in the EDTA plasma. GGT activity was determined by using Integra 400 Chemistry Analyzer, Roche Diagnostics. CKMB concentration was determined by using the Multiplex kits from Mesoscale Discovery (Gaithersburg, Md. 20877).
(§2) SAS PROC MIXED was used to fit the cross-over model (Littell R C, Milliken G A, Stroup W W, Wolfinger R D, Schabenberger O. SAS System for Mixed Models. Cay, N.C.: SAS Institute Inc.; 2006). Transformations were used when appropriate to stabilize the variances among the diets and periods. The fixed effects were order, diet, the interaction and the covariate; and the random effect was subjects within order. The test for order is a test for carry-over effect. […] Comparisons were made between the values at the end of placebo and LG treatments and using the baseline data as a covariate. Results are presented as means±SEM. Differences were considered statistically significant for P value<0.05.

[2] = system: peripheral blood mononuclear cells (PBMNC); experiment: Ex-vivo production of cytokines by PBMNC; format: in vivo, human
Experimental: Peripheral blood mononuclear cells (PBMNC) were isolated by using Dulbecco's phosphate buffered saline (DPBS) and suspended in Russ's-10 medium containing 10% autologous sera at concentrations of 1 million/mL. PBMNC were cultured in Costar 96-well sterile flat bottom plates coated with mouse anti-human CD3 and CD28 to stimulate T cells. Another set of wells were stimulated with LPS (final concentration 10 ng/mL) to stimulate monocytes. Cell culture supernatants were collected at 24, 48, and 72 hr after stimulation by centrifugation. Cell culture supernatants were stored at −80° C. until tested for cytokine concentrations. All cytokines were analyzed on a BioPlex instrument (BioRad Laboratories, Richmond, Calif.) with multiplex reagents kits (Millipore Corp., Danvers, Mass.).
(§3) Results are presented as means±SEM.

[3] = Complete blood cell count (hematological parameters); format: in vivo, human; details: End LG, 500 mg/d, 56 days, n = 10, mean ± SEM
[4] = Lipoprotein size and sub fraction concentrations by NMR; format: in vivo, human
Experimental: Mean particle size, total number of particles and their number within different subclasses of VLDL, LDL, and HDL, were determined by NMR methods. For this analysis frozen plasma samples were shipped in dry ice by overnight delivery to LipoScience Inc., who performed the analysis.
as §3

[5] = system: prostate specific antigen (PSA); experiment: Plasma free prostate specific antigen in MAP 1.6; format: in vivo, human; details: for decrease of plasma free PSA concentration: vs placebo, n=5
Experimental: Plasma samples prepared from blood collected in EDTA-containing tubes were stored at −80° C. until tested. The samples were thawed at room temperature, vortexed, spun at 13,000×g for 5 minutes for clarification and 100 uL aliquots were removed for MAP analysis into a master microtiter plate. Using automated pipetting, an aliquot of each sample was introduced into one of the capture microsphere multiplexes of the Human MAP 1.6. This MAP comprised of 89 antigens that included markers for oxidative stress, inflammation, immune status, T2DM, CVD, blood clotting, cancer, liver and kidney functions. All plasma samples were tested in duplicate. The mixture of sample and capture microspheres were thoroughly mixed and incubated at room temperature for 1 hour. Multiplexed cocktails of biotinylated, reporter antibodies for each multiplex were then added robotically and after thorough mixing, were incubated for an additional hour at room temperature. Multiplexes were developed using an excess of streptavidin-phycoerythrin solution which was thoroughly mixed into each multiplex and incubated for 1 hour at room temperature. The volume of each multiplexed reaction was reduced by vacuum filtration and the volume increased by dilution into matrix buffer for analysis. Analysis was performed in a Luminex 100 instrument and the resulting data stream was interpreted using proprietary data analysis software developed at Rules-Based Medicine. For each multiplex, both calibrators and controls were included on each microtiter plate. 8-point calibrators were run in the first and last column of each plate and 3-level controls were included in duplicate. Testing results were determined first for the high, medium and low controls for each multiplex to ensure proper assay performance. Unknown values for each of the analytes localized in a specific multiplex were determined using 4 and 5 parameter, weighted and non-weighted curve fitting algorithms included in the data analysis package. The intra-sample coefficient of variance (CV) for all antigens with concentrations above the lowest detectable dose (LDD) was less than 20%, and was less than 10% for more than 50% of the antigens tested.
as §3

[6] = system: alkaline phosphatase (ALP); details: 500 mg/d, 56 days
Experimental: as §1, §2

[7] = cells stimulated with CD3/28 (each 0.75 μg/mL, 72 hr), End LG, 500 mg/d, 56 days, n = 10, mean ± SEM
[8] = cells stimulated with LPS (10 ng/mL, 24 hr), End LG, 500 mg/d, 56 days, n = 10, mean ± SEM
[9] = plasma, NMR, End LG, 500 mg/d, 56 days, n = 10, mean ± SEM

## CC1(C)O[C@H]2CC(=O)OC[C@]23[C@H]2CC[C@@](C)([C@@H](O[C@@H]4O[C@H](CO)[C@@H](O)[C@H](O)[C@H]4O)c4ccoc4)[C@@]4(O[C@@H]4C(=O)O)[C@]2(C)C(=O)C[C@@H]13 [LG, limonin glucoside]
Complement 3; plasma, End LG, 500 mg/d, 56 days, n = 10, mean ± SEM
  Complement 3: 1.17 ± 0.05 mg/mL
Complement 3; vs end of placebo treatment, p=0.014
  decrease of plasma C3 concentration: 6.4%
[1]
  CKMB: 2.60 ± 0.50 ng/mL
[2]; LG vs placebo treatment
  ex-vivo secretion of cytokines by stimulated T cells and monocytes: did not differ; also recorded: trend for decrease
[2]; [7]
  IL-2: 58.8 ± 25.8 pg/mL
  IL-4: 66.7 ± 12.8 pg/mL
  IL-10: 779 ± 126 pg/mL
  Interferon γ: 51700 ± 10536 pg/mL
  TNF α: 6723 ± 970 pg/mL
[2]; [8]
  IL-1β: 4731 ± 1123 pg/mL
  IL-6: 10926 ± 1586 pg/mL
  TNF α: 1354 ± 231 pg/mL
[2]; ex vivo, CD3/28 or LPS stimulated PBMNC, not significant
  concentrations of all secreted cytokines except IL-10 lower than after placebo: 8-18%
[3]
  Specific gravity: 1.02 ± 0.00
[4]; [9]
  Calculated TG total: 150.50 ± 22.84 mg/dL
  Calculated cholesterol total: 208.50 ± 5.45 mg/dL
  HDL cholesterol total: 46.10 ± 2.65 mg/dL
  IDL cholesterol: 8.93 ± 1.83 mg/dL
  IDL particles: 71.80 ± 14.77 nmols/L
  LDL total cholesterol: 137.60 ± 5.14 mg/dL
  Large HDL cholesterol: 20.19 ± 3.24 mg/dL
  Large HDL particles: 6.57 ± 0.99 μmols/L
  Large LDL cholesterol: 67.24 ± 9.75 mg/dL
  Large LDL particles: 495.80 ± 71.47 nmols/L
  Large VLDL & chylomicron TG: 33.01 ± 13.18 mg/dL
  Large VLDL & chylomicron particles: 3.50 ± 1.64 nmol/L
  Mean particle size (HDL particles): 8.86 ± 0.12 nm
  Mean particle size (LDL particles): 20.94 ± 0.26 nm
  Mean particle size (VLDL & chylomicron particles): 48.60 ± 2.25 nm
  Medium HDL cholesterol: 5.87 ± 1.87 mg/dL
  Medium HDL particles: 4.54 ± 1.43 μmols/L
  Medium VLDL & chylomicron particles: 37.70 ± 8.22 nmol/L
  Medium VLDL TG: 53.08 ± 11.93 mg/dL
  Medium small LDL cholesterol: 22.60 ± 3.80 mg/dL
  Medium small LDL particles: 208.40 ± 35.06 nmols/L
  Small HDL cholesterol: 20.03 ± 1.91 mg/dL
  Small HDL particles: 20.25 ± 1.94 μmols/L
  Small LDL cholesterol: 61.47 ± 10.32 mg/dL
  Small VLDL & chylomicron particles: 45.47 ± 5.95 nmol/L
  Small VLDL TG: 20.32 ± 2.64 mg/dL
  Total HDL particles: 31.35 ± 0.95 μmols/L
  Total LDL particle: 1582.80 ± 118.15 nmols/L
  Total VLDL & chylomicron particles: 86.69 ± 13.15 nmol/L
  Total small LDL particles: 1015.20 ± 169.46 nmols/L
  VLDL & chylomicron total TG: 106.50 ± 22.20 mg/dL
  Very small LDL cholesterol: 38.91 ± 6.55 mg/dL
  Very small LDL particles: 806.80 ± 134.82 nmols/L
[4]; vs end of placebo treatment
  effect on mean particle sizes and sub-fraction concentrations of VLDL, LDL, HDL: did not alter
[5]; 5 men, 5 women
  subjects in whom free PSA concentration was reduced: all men and 3 women
[5]; plasma, MAP 1.6, End LG, 500 mg/d, 56 days, n = 10, mean ± SEM
  Prostate-Specific Antigen, Free: 0.31 ± 0.11 ng/mL
[5]; men, p=0.059
  decrease of plasma free PSA concentration: 14.5%
[5]; women, p=0.309
  decrease of plasma free PSA concentration: 22.9%
[6]; serum, End LG, n = 10, mean ± SEM
  Alkaline phosphatase: 59.5 ± 3.47 U/L
[6]; vs end of placebo treatment, p=0.025
  decrease of serum alkaline phosphatase (ALP) activity: 10.1%

From US9066965B1, “Purified limonin glucoside for prevention and treatment of chronic diseases” (The United States of America, as represented by the …, priority 2012, dated 2015)
